# The supplement of paper PMC6045584
# ± gives the standard deviation of the averaged measurements.
# Key:
# TIOGUANINE = compound: Nc1nc2[nH]cnc2c(=S)[nH]1 [TIOGUANINE]; assay: surviving fraction relative to DMSO-only wells; higher = less growth inhibition; details: exposure time: 5 days
# How it was run: (§1)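 Viability values are CellTiter-Glo luminescence readings, given as surviving fraction against the median of DMSO-only wells. The readings were taken after 10 minutes at room temperature, following five days of continuous exposure to inhibitors at 0.5, 1, 5, 10, 50, 100, 500 and 1000 nM that began 24 hours after log-phase tumour cell lines were seeded at 250–500 cells per well in 384-well plates. Every line was screened three times and kept only if replicate Pearson r >0.7 and median Z' >0.3.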
# AFATINIB = compound: CN(C)C/C=C/C(=O)Nc1cc2c(Nc3ccc(F)c(Cl)c3)ncnc2cc1O[C@H]1CCOC1 [AFATINIB]; assay: as above; details: exposure time: 5 days
# How it was run: as §1
Test System,surviving fraction (TIOGUANINE; 0.5 nM),surviving fraction (TIOGUANINE; 1 nM),surviving fraction (TIOGUANINE; 5 nM),surviving fraction (TIOGUANINE; 10 nM),surviving fraction (TIOGUANINE; 50 nM),surviving fraction (TIOGUANINE; 100 nM),surviving fraction (TIOGUANINE; 500 nM),surviving fraction (TIOGUANINE; 1000 nM),surviving fraction (AFATINIB; 0.5 nM),surviving fraction (AFATINIB; 1 nM),surviving fraction (AFATINIB; 5 nM),surviving fraction (AFATINIB; 10 nM),surviving fraction (AFATINIB; 50 nM),surviving fraction (AFATINIB; 100 nM),surviving fraction (AFATINIB; 500 nM),surviving fraction (AFATINIB; 1000 nM)
A549 LUNG,0.946 ± 0.045,0.955 ± 0.025,0.96 ± 0.046,0.952 ± 0.051,0.976 ± 0.045,0.999 ± 0.064,1.01 ± 0.038,0.973 ± 0.056,1.02 ± 0.068,1.02 ± 0.053,0.987 ± 0.05,0.965 ± 0.056,1.03 ± 0.025,1.03 ± 0.019,1.04 ± 0.05,1.03 ± 0.034
MDAMB157 BREAST,0.867 ± 0.072,0.857 ± 0.052,0.958 ± 0.013,0.921 ± 0.071,0.986 ± 0.078,0.961 ± 0.085,0.88 ± 0.055,0.89 ± 0.039,0.993 ± 0.14,0.975 ± 0.048,0.96 ± 0.09,0.976 ± 0.16,0.979 ± 0.069,0.944 ± 0.12,0.85 ± 0.097,0.526 ± 0.06
SUM159 BREAST,1.07 ± 0.14,1.02 ± 0.025,1.02 ± 0.041,1.03 ± 0.069,1.04 ± 0.075,0.97 ± 0.077,1.05 ± 0.084,1.008 ± 0.006,1.07 ± 0.02,1.03 ± 0.061,1.07 ± 0.023,0.942 ± 0.13,0.943 ± 0.15,0.886 ± 0.27,0.896 ± 0.23,0.867 ± 0.27
SUM149.B1*.S BREAST,1.02 ± 0.072,1.019 ± 0.0064,1.03 ± 0.016,1.03 ± 0.056,1.02 ± 0.033,1 ± 0.015,0.993 ± 0.022,0.922 ± 0.033,1.11 ± 0.014,1.11 ± 0.061,1.05 ± 0.02,1.05 ± 0.037,0.966 ± 0.03,0.972 ± 0.045,0.916 ± 0.022,0.798 ± 0.044
SCC003 HEADNECK,0.892 ± 0.14,1 ± 0.1,1.01 ± 0.033,0.99 ± 0.094,0.998 ± 0.098,1.1 ± 0.12,0.988 ± 0.047,0.797 ± 0.027,1.11 ± 0.093,1.04 ± 0.045,0.941 ± 0.1,0.901 ± 0.095,0.636 ± 0.056,0.557 ± 0.0066,0.518 ± 0.068,0.425 ± 0.058
143B BONE,0.986 ± 0.015,1.01 ± 0.018,0.993 ± 0.025,0.999 ± 0.0071,0.9995 ± 0.0092,1.01 ± 0.028,0.904 ± 0.0014,0.707 ± 0.041,1.0165 ± 0.00071,1.05 ± 0.011,1.0335 ± 0.00071,1.02 ± 0.014,1.01 ± 0.023,1.02 ± 0.02,1 ± 0.028,0.871 ± 0.11
CME SYNOVIAL,1.07 ± 0.067,1.22 ± 0.12,1.16 ± 0.051,1.22 ± 0.03,1.29 ± 0.021,1.32 ± 0.19,1.24 ± 0.054,1.08 ± 0.18,1.34 ± 0.1,1.37 ± 0.18,1.33 ± 0.13,1.28 ± 0.17,1.44 ± 0.19,1.32 ± 0.12,1.26 ± 0.062,0.733 ± 0.066
SUM149 BREAST,1.06 ± 0.068,0.998 ± 0.076,1.11 ± 0.068,1.05 ± 0.058,0.984 ± 0.029,1.06 ± 0.082,1.01 ± 0.067,1.05 ± 0.058,1.03 ± 0.076,1.05 ± 0.033,0.703 ± 0.12,0.573 ± 0.089,0.481 ± 0.056,0.439 ± 0.013,0.4053 ± 0.004,0.339 ± 0.044
SCC90 HEADNECK,0.874 ± 0.047,0.873 ± 0.057,1.16 ± 0.12,1.09 ± 0.12,1.03 ± 0.17,1.08 ± 0.15,0.86 ± 0.045,0.743 ± 0.099,1 ± 0.04,0.907 ± 0.086,0.621 ± 0.036,0.495 ± 0.028,0.42 ± 0.08,0.351 ± 0.0068,0.288 ± 0.011,0.235 ± 0.011
G292 BONE,0.964 ± 0.034,0.998 ± 0.045,1 ± 0.021,0.984 ± 0.036,1.01 ± 0.023,1.02 ± 0.016,0.948 ± 0.011,0.949 ± 0.035,1 ± 0.064,0.998 ± 0.029,1.07 ± 0.027,0.995 ± 0.037,1.03 ± 0.02,0.982 ± 0.028,0.717 ± 0.032,0.447 ± 0.027
YAMATO SYNOVIAL,1.31 ± 0.071,1.21 ± 0.046,1.32 ± 0.052,1.35 ± 0.11,1.36 ± 0.17,1.37 ± 0.06,1.24 ± 0.092,1.06 ± 0.066,1.22 ± 0.061,1.34 ± 0.096,1.32 ± 0.15,1.18 ± 0.0093,1.23 ± 0.037,1.27 ± 0.07,1.16 ± 0.035,0.739 ± 0.02
MHM BONE,0.987 ± 0.028,0.9777 ± 0.0058,1.01 ± 0.024,0.986 ± 0.011,1.026 ± 0.0069,1.039 ± 0.0067,0.983 ± 0.028,0.999 ± 0.018,1.022 ± 0.0067,1 ± 0.018,1.02 ± 0.016,1 ± 0.03,1.07 ± 0.028,1.03 ± 0.016,0.961 ± 0.041,0.883 ± 0.022
HCC1395 BREAST,0.999 ± 0.06,1.12 ± 0.064,0.968 ± 0.1,1.11 ± 0.054,1.05 ± 0.039,1.16 ± 0.04,1.11 ± 0.086,1.09 ± 0.081,1.05 ± 0.14,1.14 ± 0.1,1.03 ± 0.043,1.13 ± 0.046,1.01 ± 0.15,1.12 ± 0.026,1.05 ± 0.23,0.92 ± 0.12
SCC47 HEADNECK,0.796 ± 0.02,0.834 ± 0.05,0.969 ± 0.043,0.961 ± 0.061,0.98 ± 0.035,0.966 ± 0.045,0.854 ± 0.082,0.803 ± 0.039,1.05 ± 0.021,0.98 ± 0.078,0.88 ± 0.11,0.707 ± 0.037,0.629 ± 0.064,0.604 ± 0.034,0.546 ± 0.026,0.373 ± 0.014
SG28 HEADNECK,1.07 ± 0.045,1.05 ± 0.14,1.01 ± 0.14,0.994 ± 0.076,1.06 ± 0.089,1.05 ± 0.12,1.02 ± 0.038,1.14 ± 0.082,0.907 ± 0.056,0.828 ± 0.089,0.669 ± 0.083,0.523 ± 0.056,0.441 ± 0.052,0.452 ± 0.057,0.342 ± 0.029,0.259 ± 0.035
HOS BONE,1 ± 0.011,0.9977 ± 0.0091,1.004 ± 0.0085,1.02 ± 0.032,1.05 ± 0.033,1.038 ± 0.0061,0.75 ± 0.037,0.612 ± 0.016,1.01 ± 0.027,1.03 ± 0.012,1.017 ± 0.0066,1.01 ± 0.016,1.02 ± 0.014,1.02 ± 0.023,0.979 ± 0.048,0.858 ± 0.025
NCIH441 LUNG,0.963 ± 0.053,1.03 ± 0.082,0.971 ± 0.032,0.955 ± 0.079,1.03 ± 0.024,1.02 ± 0.017,1.01 ± 0.091,0.976 ± 0.058,1.15 ± 0.086,1.11 ± 0.042,1.1 ± 0.1,1.04 ± 0.04,1.03 ± 0.042,0.851 ± 0.11,0.686 ± 0.027,0.409 ± 0.017
MDAMB468 BREAST,1.02 ± 0.079,0.995 ± 0.025,1.08 ± 0.056,1.06 ± 0.1,1.1 ± 0.056,1.19 ± 0.087,1.04 ± 0.087,1.05 ± 0.042,1.07 ± 0.026,1.04 ± 0.021,0.861 ± 0.078,0.767 ± 0.14,0.61 ± 0.017,0.617 ± 0.025,0.297 ± 0.012,0.0913 ± 0.0067
SG32 HEADNECK,0.916 ± 0.077,1.04 ± 0.044,1.18 ± 0.22,1.2 ± 0.074,1.2 ± 0.15,0.881 ± 0.05,0.962 ± 0.22,1.17 ± 0.057,1.13 ± 0.14,1.09 ± 0.082,1.13 ± 0.2,1.01 ± 0.078,0.895 ± 0.11,0.864 ± 0.07,0.637 ± 0.081,0.348 ± 0.09
RDES SOFT TISSUE,1.19 ± 0.17,1.42 ± 0.042,1.33 ± 0.06,1.35 ± 0.13,1.25 ± 0.17,1.19 ± 0.12,1.07 ± 0.012,1.28 ± 0.15,1.33 ± 0.2,1.29 ± 0.15,1.17 ± 0.19,1.3 ± 0.31,0.988 ± 0.18,1.16 ± 0.19,1.13 ± 0.22,1.11 ± 0.019
93VU HEADNECK,0.831 ± 0.039,0.872 ± 0.088,1.03 ± 0.082,1.08 ± 0.094,1.06 ± 0.015,1.06 ± 0.11,0.798 ± 0.042,0.768 ± 0.081,0.895 ± 0.046,0.883 ± 0.053,0.697 ± 0.075,0.59 ± 0.043,0.469 ± 0.085,0.46 ± 0.049,0.387 ± 0.017,0.302 ± 0.022
